# Measurements: US20140308733A1, “METHOD FOR INDUCING GERMINATION OF SPORE FORMING BACTERIUM” (CALPIS CO., LTD., priority 2011, published 2014)
# How the values were obtained:
# Assay in all cases: Germination induction, change of turbidity (630 nm) of spore suspension
# Format in all cases: cell-based
# Conditions in all cases: 300 ppm; for turbidity (630 nm): 37° C., 150 rpm
# [1] = test system: Bacillus coagulans (NBRC 3887)
# Experimental: (§1) It is possible to determine whether spores have germinated, after measuring an OD 630 value (turbidity at 630 nm) of the liquid culture, based on decrease in the value (Literature: Microbiology, (1950), 4, 3, 330-338). Briefly, bacterial cells after culturing are washed with distilled water and diluted with distilled water to OD 630=1.0, which is then mixed with an equal volume of a germination induction solution, and the turbidity at 630 nm is measured by a UV spectrophotometer at room temperature.
# (§2) TS culture media (Difco, Trypticase Soy Broth) were inoculated respectively with 11 strains listed in Table 1 and cultured at 50° C. with respect to Geobacillus stearothermophilus NBRC13737 and Aeribacillus pallidus TK6004 (FERM BP-08597), and at 37° C. with respect to the other 9 strains, until respective colonies were established. Then with respect to each of 11 strains, a loop full of a single colony was scratched by a platinum loop and suspended in 500 μL of sterilized water. In 1000 g of water was dissolved 8.0 g of a nutrient agar culture medium (Difco, Nutrient Broth), followed by high pressure steam sterilization (121° C., 15 min) to prepare a plate medium. The nutrient agar culture medium was smeared with each 100 μL of the suspension and cultured at 37° C. for 3 days.
# (§3) Then, bacterial cells were suspended using a platinum loop in 500 μL of sterilized water, and the bacterial suspension was subjected to a heat shock at 65° C. for 35 min. Each 100 μL of the heat-shocked bacterial suspension and a not-heat-shocked bacterial suspension were smeared on the TS culture media respectively and cultured at 50° C. or 37° C. for 1 day. As the results of the cultures, colony formation was confirmed also with respect to the heat-shocked bacterial suspensions, to confirm that spores were formed for all of 11 strains. Further, since the bacteria were not stained by Gram staining, it was reconfirmed that spores were formed.
# (§4) After confirming the spore formation, the bacterial cells were collected by a bacteria spreader, suspended in 10 mL of sterilized distilled water, and then centrifuged (8340×g, 4° C., 15 min). The supernatant was removed and thereafter the bacterial cells were washed twice with 10 mL of sterilized water. After washing, the bacterial cells were suspended in 5 mL of sterilized water, and the suspension was filtrated by sterilized Kimwipes. The filtrate was centrifuged (8340×g, 4° C., 15 min) to remove the supernatant, and the rest was adjusted to the turbidity (at 630 nm) of 1.0 with sterilized water.
# (§5) After dissolving with stirring using a stirring rod with a propeller, filtration sterilization (0.45 μm filter) was conducted to prepare each 600 ppm-solution.
# (§6) Five hundred (500) μL of each solution and 500 μL of each bacterial spore suspension were mixed. […] Defining the time point of mixing as the reaction initiation (0 min), and continuing shaking (150 rpm) at 37° C., the turbidity (630 nm) was measured at 10, 20, 30, 40, 50, 60, 90, 120, and 180 min after the reaction initiation.
# (§7) Since the turbidity at 630 nm decreases by germination of spores, it has been known that the turbidity at 630 nm can be used to determine the germination rate.
# [2] = test system: Bacillus licheniformis (NBRC 12195)
# Experimental: as §1, §2, §3, §4, §5, §6, §7
# [3] = test system: Bacillus amyloliquefaciens (NBRC 3032)
# Experimental: as §1, §2, §3, §4, §5, §6, §7
# [4] = test system: Geobacillus stearothermophilus (NBRC 13737)
# Experimental: as §1, §2, §3, §4, §5, §6, §7
# [5] = test system: Aeribacillus pallidus TK6004 (FERM BP-08597)
# Experimental: as §1, §2, §3, §4, §5, §6, §7
# [6] = test system: Bacillus licheniformis (NBRC 14206)
# Experimental: as §1, §2
# (§8) Then, bacterial cells were suspended using a platinum loop in 500 μL of sterilized water, and the bacterial suspension was subjected to a heat shock at 65° C. for 35 min. Each 100 μL of the heat-shocked bacterial suspension and a not-heat-shocked bacterial suspension were smeared on the TS culture media respectively and cultured at 50° C. or 37° C. for 1 day.
# as §4, §5, §6, §7
# [7] = test system: Bacillus licheniformis (NBRC 12200)
# Experimental: as §1, §2, §8, §4, §5, §6, §7
# [8] = 0 min after reaction initiation
# [9] = 10 min after reaction initiation
# [10] = 20 min after reaction initiation
# [11] = 30 min after reaction initiation
# [12] = 40 min after reaction initiation
# [13] = 50 min after reaction initiation
# [14] = 60 min after reaction initiation
# [15] = 90 min after reaction initiation
# [16] = 120 min after reaction initiation
# [17] = 180 min after reaction initiation
compound,measurement,setting,value
"COc1cc(/C=C/C(=O)O)ccc1O [Ferulic acid, ferulic acid]",turbidity (630 nm),[1]; [8],0.566
same,turbidity (630 nm),[1]; [9],0.531
same,turbidity (630 nm),[1]; [10],0.500
same,turbidity (630 nm),[1]; [11],0.454
same,turbidity (630 nm),[1]; [12],0.423
same,turbidity (630 nm),[1]; [13],0.372
same,turbidity (630 nm),[1]; [14],0.340
same,turbidity (630 nm),[1]; [15],0.300
same,turbidity (630 nm),[1]; [16],0.247
same,turbidity (630 nm),[1]; [17],0.209
same,germination confirmed by turbidity decrease,[1]; up to 180 min,the turbidity decreased
same,turbidity (630 nm),[2]; [8],0.541
same,turbidity (630 nm),[2]; [9],0.521
same,turbidity (630 nm),[2]; [10],0.502
same,turbidity (630 nm),[2]; [11],0.480
same,turbidity (630 nm),[2]; [12],0.449
same,turbidity (630 nm),[2]; [13],0.430
same,turbidity (630 nm),[2]; [14],0.392
same,turbidity (630 nm),[2]; [15],0.368
same,turbidity (630 nm),[2]; [16],0.324
same,turbidity (630 nm),[2]; [17],0.290
same,germination confirmed by turbidity decrease,[2]; up to 180 min,the turbidity decreased
same,turbidity (630 nm),[3]; [8],0.526
same,turbidity (630 nm),[3]; [9],0.505
same,turbidity (630 nm),[3]; [10],0.480
same,turbidity (630 nm),[3]; [11],0.431
same,turbidity (630 nm),[3]; [12],0.397
same,turbidity (630 nm),[3]; [13],0.353
same,turbidity (630 nm),[3]; [14],0.316
same,turbidity (630 nm),[3]; [15],0.269
same,turbidity (630 nm),[3]; [16],0.245
same,turbidity (630 nm),[3]; [17],0.216
same,germination confirmed by turbidity decrease,[3]; up to 180 min,the turbidity decreased
same,turbidity (630 nm),[4]; [8],0.560
same,turbidity (630 nm),[4]; [9],0.551
same,turbidity (630 nm),[4]; [10],0.537
same,turbidity (630 nm),[4]; [11],0.541
same,turbidity (630 nm),[4]; [12],0.489
same,turbidity (630 nm),[4]; [13],0.473
same,turbidity (630 nm),[4]; [14],0.459
same,turbidity (630 nm),[4]; [15],0.397
same,turbidity (630 nm),[4]; [16],0.326
same,turbidity (630 nm),[4]; [17],0.202
same,germination confirmed by turbidity decrease,[4]; up to 180 min,the turbidity decreased
same,turbidity (630 nm),[5]; [8],0.484
same,turbidity (630 nm),[5]; [9],0.450
same,turbidity (630 nm),[5]; [10],0.393
same,turbidity (630 nm),[5]; [11],0.276
same,turbidity (630 nm),[5]; [12],0.193
same,turbidity (630 nm),[5]; [13],0.124
same,turbidity (630 nm),[5]; [14],0.080
same,turbidity (630 nm),[5]; [15],0.040
same,turbidity (630 nm),[5]; [16],0.016
same,turbidity (630 nm),[5]; [17],0.016
same,germination confirmed by turbidity decrease,[5]; up to 180 min,the turbidity decreased
same,turbidity (630 nm),[6]; [8],0.589
same,turbidity (630 nm),[6]; [9],0.583
same,turbidity (630 nm),[6]; [10],0.573
same,turbidity (630 nm),[6]; [11],0.565
same,turbidity (630 nm),[6]; [12],0.553
same,turbidity (630 nm),[6]; [13],0.547
same,turbidity (630 nm),[6]; [14],0.530
same,turbidity (630 nm),[6]; [15],0.498
same,turbidity (630 nm),[6]; [16],0.474
same,turbidity (630 nm),[6]; [17],0.463
same,germination confirmed by turbidity decrease,[6]; up to 180 min,the turbidity decreased
same,turbidity (630 nm),[7]; [8],0.601
same,turbidity (630 nm),[7]; [9],0.569
same,turbidity (630 nm),[7]; [10],0.563
same,turbidity (630 nm),[7]; [11],0.543
same,turbidity (630 nm),[7]; [12],0.536
same,turbidity (630 nm),[7]; [13],0.517
same,turbidity (630 nm),[7]; [14],0.503
same,turbidity (630 nm),[7]; [15],0.460
same,turbidity (630 nm),[7]; [16],0.417
same,turbidity (630 nm),[7]; [17],0.334
same,germination confirmed by turbidity decrease,[7]; up to 180 min,the turbidity decreased
